Results taken from PubChem BioAssay AID330 (DTP/NCI, 2004).
Several values for one entry are separate records, joined by “and”; a condition that tells them apart may be missing. Identical values can stand only once. Toxic doses and inconclusive results are not listed. How the source made its calls: active means survival T/C of 150% or more; inactive means T/C below 125% in these data.

System: P388 leukemia ip, CD2F1 mice, survival T/C
Assay: NCI In Vivo Anticancer Drug Screen. Data for tumor model P388 Leukemia (intraperitoneal) in CD2F1 (CDF1) mice
Details: endpoint: median survival time, higher = longer survival
Outline: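 Mice carrying the transplanted tumor received test compound or vehicle. Survival was recorded in each group, and the value is the treated-group measurement divided by that of the vehicle-treated control group.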

[1] = dose: 100.0 mg/kg/injection, schedule: Q04DX002 (ip), vehicle: saline with Tween-80
[2] = dose: 200.0 mg/kg/injection, schedule: Q04DX002 (ip), vehicle: saline with Tween-80
[3] = dose: 400.0 mg/kg/injection, schedule: Q04DX002 (ip), vehicle: saline with Tween-80
[4] = dose: 50.0 mg/kg/injection, schedule: Q01DX009 (ip), vehicle: saline
[5] = dose: 100.0 mg/kg/injection, schedule: Q01DX009 (ip), vehicle: saline
[6] = dose: 200.0 mg/kg/injection, schedule: Q01DX009 (ip), vehicle: saline
[7] = dose: 100.0 mg/kg/injection, schedule: Q01DX001 (ip), vehicle: saline
[8] = dose: 200.0 mg/kg/injection, schedule: Q01DX001 (ip), vehicle: saline
[9] = dose: 50.0 mg/kg/injection, schedule: Q01DX009 (ip), vehicle: saline with Tween-80
[10] = dose: 100.0 mg/kg/injection, schedule: Q01DX009 (ip), vehicle: saline with Tween-80
[11] = dose: 200.0 mg/kg/injection, schedule: Q01DX009 (ip), vehicle: saline with Tween-80
[12] = dose: 50.0 mg/kg/injection, schedule: Q01DX005 (ip), vehicle: Klucel (hydroxypropylcellulose) (HPC)
[13] = dose: 50.0 mg/kg/injection, schedule: Q01DX005 (ip), vehicle: saline with Tween-80
[14] = dose: 100.0 mg/kg/injection, schedule: Q01DX005 (ip), vehicle: Klucel (hydroxypropylcellulose) (HPC)
[15] = dose: 100.0 mg/kg/injection, schedule: Q01DX005 (ip), vehicle: saline with Tween-80
[16] = dose: 50.0 mg/kg/injection, schedule: Q01DX009 (ip), vehicle: Klucel (hydroxypropylcellulose) (HPC)
[17] = dose: 100.0 mg/kg/injection, schedule: Q01DX009 (ip), vehicle: Klucel (hydroxypropylcellulose) (HPC)
[18] = dose: 200.0 mg/kg/injection, schedule: Q01DX009 (ip), vehicle: Klucel (hydroxypropylcellulose) (HPC)
[19] = dose: 60.0 mg/kg/injection, schedule: Q01DX005 (ip), vehicle: saline with Tween-80
[20] = dose: 12.5 mg/kg/injection, schedule: Q01DX009 (ip), vehicle: saline with Tween-80
[21] = dose: 25.0 mg/kg/injection, schedule: Q01DX009 (ip), vehicle: saline with Tween-80

Measured: T/C

COc1ccccc1C1c2cc3c(cc2OC(C)(N2CCCC2)C1C)OCO3 (stereo not given)
inactive: [1] 96 % of control | [2] 102 % of control | [3] 99 % of control

CC1(C)SC2C(NC(=O)C(N)c3ccc(O)cc3)C(=O)N2C1C(=O)O (stereo not given)
inactive: [4] 113 % of control | [5] 116 % of control | [6] 113 % of control

CCN(CC)CCSc1nnc(N)s1
inactive: dose: 50.0 mg/kg/injection, schedule: Q01DX001 (ip), vehicle: saline 103 % of control | [7] 103 % of control | [8] 99 % of control

CC(=O)N(O)c1ccc(S(N)(=O)=O)cc1
inactive: [9] 113 % of control | [10] 100 % of control | [11] 98 % of control

COc1cc2c(c3c1c(=O)c1ccccc1n3C)C=CC(C)(C)O2
inactive: dose: 7.5 mg/kg/injection, schedule: Q01DX009 (ip), vehicle: saline with Tween-80 99 % of control | dose: 12.5 mg/kg/injection, schedule: Q01DX005 (ip), vehicle: saline with Tween-80 92 % of control | dose: 15.0 mg/kg/injection, schedule: Q01DX009 (ip), vehicle: saline with Tween-80 98 % of control | dose: 25.0 mg/kg/injection, schedule: Q01DX005 (ip), vehicle: Klucel (hydroxypropylcellulose) (HPC) 97 % of control | dose: 25.0 mg/kg/injection, schedule: Q01DX005 (ip), vehicle: saline with Tween-80 92 % of control | dose: 30.0 mg/kg/injection, schedule: Q01DX009 (ip), vehicle: saline with Tween-80 103 % of control | [12] 112 % of control | [13] 112 % of control | [14] 118 % of control | [15] 113 % of control

Cc1ccc(Nc2nnc(Nc3ccc(C)cn3)c3ccccc23)nc1
inactive: [13] 90 % of control | [15] 89 % of control

Cc1ccc(S(=O)(=O)N2CCC2)cc1
inactive: [10] 90 % of control | [11] 95 % of control | dose: 400.0 mg/kg/injection, schedule: Q01DX009 (ip), vehicle: saline with Tween-80 100 % of control

CC1=CC2C(c3ccccc3)Nc3ccccc3N2C1=O (stereo not given)
inactive: [4] 94 % of control | [5] 100 % of control | [6] 94 % of control

O=C(O)CCCC12CCC(CCCC(=O)O)(CC1)CC2
inactive: dose: 100.0 mg/kg/injection, schedule: Q04DX003 (ip), vehicle: Klucel (hydroxypropylcellulose) (HPC) 99 % of control | dose: 200.0 mg/kg/injection, schedule: Q04DX003 (ip), vehicle: Klucel (hydroxypropylcellulose) (HPC) 97 % of control | dose: 400.0 mg/kg/injection, schedule: Q04DX003 (ip), vehicle: Klucel (hydroxypropylcellulose) (HPC) 104 % of control

CSC(=Nc1ccc(C)c(Cl)c1)NC#N
inactive: [16] 98 % of control | [17] 91 % of control | [18] 92 % of control

Nc1ccccc1Sc1cc(Cl)nnc1Cl
inactive: [9] 93 % of control | [10] 95 % of control | [11] 99 % of control

CC12C=C3C4(CCCC3(O1)c1ccccc12)OCCO4 (stereo not given)
inactive: [9] 96 % of control | [10] 102 % of control | [11] 99 % of control

Cn1[nH]c(C(C)(C)O)cc1=O
inactive: [7] 107 % of control | [8] 97 % of control | dose: 400.0 mg/kg/injection, schedule: Q01DX001 (ip), vehicle: saline 101 % of control

COCCCn1c(-c2cc(OC)c(OC)c(OC)c2)nn2c(=O)c3ccccc3nc2c1=O
inactive: [4] 102 % of control | [5] 107 % of control | [6] 101 % of control

COc1cccc(/C=C2\CCc3ccccc3C2=O)c1
inactive: [16] 100 % of control | [17] 99 % of control | [18] 106 % of control

CCCN(CCC)CC(=O)NC1CC(OC2CC(O)(C(C)=O)Cc3c(O)c4c(c(O)c32)C(=O)c2c(OC)cccc2C4=O)OC(C)C1O (stereo not given)
inactive: dose: 0.25 mg/kg/injection, schedule: Q01DX009 (ip), vehicle: water 107 % of control | dose: 0.5 mg/kg/injection, schedule: Q01DX009 (ip), vehicle: water 101 % of control | dose: 1.0 mg/kg/injection, schedule: Q01DX009 (ip), vehicle: water 107 % of control | dose: 2.0 mg/kg/injection, schedule: Q01DX009 (ip), vehicle: water 103 % of control | dose: 4.0 mg/kg/injection, schedule: Q01DX009 (ip), vehicle: water 100 % of control | dose: 8.0 mg/kg/injection, schedule: Q01DX009 (ip), vehicle: water 107 % of control

CN1CCCC(C(=O)c2ccccc2)C1 (stereo not given)
inactive: dose: 12.5 mg/kg/injection, schedule: Q01DX009 (ip), vehicle: saline 109 % of control | dose: 25.0 mg/kg/injection, schedule: Q01DX009 (ip), vehicle: saline 105 % of control | [4] 107 % of control and 94 % of control

O=S(=O)(Cc1ccccc1)/N=C\c1ccc(Cl)cc1
inactive: [16] 95 % of control | [17] 103 % of control | [18] 104 % of control

O=C(NNCNNC(=O)c1ccncc1)c1ccncc1
inactive: [12] 100 % of control | [14] 100 % of control | dose: 200.0 mg/kg/injection, schedule: Q01DX005 (ip), vehicle: Klucel (hydroxypropylcellulose) (HPC) 96 % of control

CCNC(=O)N(Cc1ccccc1)Cc1ccccc1
inactive: dose: 12.5 mg/kg/injection, schedule: Q01DX009 (ip), vehicle: other 114 % of control | dose: 25.0 mg/kg/injection, schedule: Q01DX009 (ip), vehicle: other 112 % of control | dose: 50.0 mg/kg/injection, schedule: Q01DX009 (ip), vehicle: other 104 % of control | dose: 100.0 mg/kg/injection, schedule: Q01DX009 (ip), vehicle: other 118 % of control

O=C1CS/C(=C/Cc2nc3ccccc3s2)N1
inactive: [19] 108 % of control | dose: 120.0 mg/kg/injection, schedule: Q01DX005 (ip), vehicle: saline with Tween-80 97 % of control | dose: 240.0 mg/kg/injection, schedule: Q01DX005 (ip), vehicle: saline with Tween-80 102 % of control

C[n+]1ccc2ccccc2c1
inactive: dose: 15.0 mg/kg/injection, schedule: Q01DX005 (ip), vehicle: saline with Tween-80 109 % of control | dose: 30.0 mg/kg/injection, schedule: Q01DX005 (ip), vehicle: saline with Tween-80 100 % of control | [19] 100 % of control and 104 % of control

CCCCCCCCCCC(=O)CCCCC
inactive: dose: 100.0 mg/kg/injection, schedule: Q04DX003 (ip), vehicle: other 104 % of control | dose: 200.0 mg/kg/injection, schedule: Q04DX003 (ip), vehicle: other 109 % of control | dose: 400.0 mg/kg/injection, schedule: Q04DX003 (ip), vehicle: other 113 % of control

O=C(O)c1c[n+]([O-])ccc1OCc1ccccc1
inactive: dose: 100.0 mg/kg/injection, schedule: Q04DX003 (ip), vehicle: saline 100 % of control | dose: 200.0 mg/kg/injection, schedule: Q04DX003 (ip), vehicle: saline 98 % of control | dose: 400.0 mg/kg/injection, schedule: Q04DX003 (ip), vehicle: saline 94 % of control

CO[C@H]1/C=C/O[C@@]2(C)Oc3c(C)c(O)c4c(O)c(c(/C=N/N5C(C)CN(Cc6ccc(C#N)cc6)CC5C)c(O)c4c3C2=O)NC(=O)/C(C)=C\C=C\[C@H](C)[C@H](O)[C@@H](C)[C@@H](O)[C@@H](C)[C@H](OC(C)=O)[C@@H]1C (stereo not given in full)
inactive: dose: 12.5 mg/kg/injection, schedule: Q01DX009 (ip), vehicle: Klucel (hydroxypropylcellulose) (HPC) 93 % of control | [20] 107 % of control | dose: 25.0 mg/kg/injection, schedule: Q01DX009 (ip), vehicle: Klucel (hydroxypropylcellulose) (HPC) 87 % of control | [21] 92 % of control | [16] 86 % of control | [9] 100 % of control and 95 % of control | [17] 107 % of control | [10] 113 % of control | [18] 107 % of control

Cc1cc(=O)[nH][nH]1
inactive: [1] 97 % of control | [2] 100 % of control | [3] 94 % of control

c1cc2c(ccc3c4c([nH]c32)CCCC4)cn1
inactive: [20] 101 % of control | [21] 105 % of control | [9] 99 % of control | [10] 98 % of control

CC1CCC(C(=O)C(Cl)C(Cl)C2CCCCC2)CC1 (stereo not given)
inactive: [12] 92 % of control | [14] 92 % of control
